In patent US6994981B2, “Modulators of paraptosis and related methods” (The Buck Institute, priority 2002, dated 2006):

Experiments:
[1] = tested on: 293T cells transfected with NK1R; assay: SP-induced, NK1R-mediated cell death in 293T cells transfected with NK1R, trypan blue and staining; format: cell-based, human; conditions: 10 μM
Method: Human embryonic kidney 293T cells were grown as described in Example I. Transient transfection was performed using Superfect (Qiagen) as described by the manufacturer. Briefly, 2×10^5 cells/well were seeded into 35 mm wells 16 hr prior to transfection. Superfect:DNA complexes were added at a 5 μl:2 μg ratio for 3 hr; then the medium was replaced and after 24 hr SP was added. At 24–48 hr after addition of SP cell death was quantified as follows: the media containing floating cells were collected and centrifuged 10 min at 2000×g, the pellet was resuspended in PBS/trypan blue and the cells were counted using a hematocytometer. When other compounds were used, they were added at the same time as SP: zVAD.fmk or BAF was added at 50 μM and obtained from Enzyme System Products, Livermore, Calif.
Briefly, the method entailed cloning the full-length (1.2 kb) NK1R cDNA (Genbank Accession No. M31477) by RT-PCR from adult rat hippocampal RNA into the XbaI/EcoRI sites of the vector pcDNA3.1 (Invitrogen), using the following oligonucleotides: forward 5′[…] 3′ (SEQ ID NO:2); reverse 5′[…] 3′ (SEQ ID NO:3).
Cells were stained according to the manufacturer's instructions (Clontech). Briefly, cellswere washed with binding buffer and incubated with FITC-Annexin-V or EGFPAnnexin-V for 5–10 min and fixed with 4% paraformaldehyde.
Cells were fixed 10 min with 4% paraformaldehyde and stained according to the manufacturer's instructions (Promega).
(§1) The protein kinase inhibitors were added 30 min before SP exposure at the following concentrations: 10 μM Rp-8-Br-cAMPS (adenosin 3′,5′-cyclic monophosphorothioate, 8-bromo-, Rp-isomer, sodium salt) which is a PKA inhibitor; 50 nM Calphostin C, which is a PKC inhibitor; 10 μM PD 98059 which is a MAPKK (MEK) inhibitor. These compounds were obtained from Calbiochem. Viability was quantified by trypan blue staining of the total cell population.

ERK-1/2 = assay: Western blot of ERK-1/2 phosphorylation in 293T cells expressing NK1R; format: cell-based, human; conditions: 10 μM
Method: For the transfected 293T cells, cells were washed with cold PBS after incubation with SP the time indicate and homogenized on lysis buffer (150 mM NaCl, 1% Triton X-100, 50 mM Tris HCL pH8.0). Cytoplasmic extracts were collected after 10 min centrifugation at 14,000 rcf. Total amount of protein was quantified by Bradford assay and electrophoresis of equal amounts of total protein was performed on SDS-polyacrylamide gels. Separated proteins were transferred to polyvinylidene fluoride membranes at 4° C. for Western blot analysis. Membranes were probed with a 1:1000 dilution of anti-ERK-1/2 or anti phospho-ERK-1/2 (BioSource). The blots were incubated in a horseradish peroxidase coupled secondary antibody for 1 h followed by enhanced chemiluminescence detection of the proteins with […]™ ECL detection (Amersham, Arlington Heights, Ill.). For striatal neurons, total ERK-1/2 was immunoprecipitated using superparamagnetic Microbeads conjugated to protein A, following manufacture's instructions (MACS, Miltenyi Biotec), and then developed by Western blot against either anti-ERK-1/2 or anti phospho-ERK-1/2.

[2] = tested on: IGFIR-IC transfected 293T cells; assay: Inhibition of IGFIR-IC induced paraptosis in transfected 293T cells, LDH assay; format: cell-based, human; conditions: for effect on IGFIR-induced paraptosis: concentration not given
Method: Paraptosis was induced in 293T cells by expressing the intracellular domain of the insulin-like growth factor I receptor (IGFIR-IC) in these cells using transient transfection as described above.
(§2) Test compounds were added to IGFIR-IC transfected 293T cells at the time of transfection.
The TRAF2 dominant negative mutant contains a deletion of the amino terminal 271 amino acids of the protein. The ratio of IGFIR-IC:AIP1 and IGFIR-IC:TRAF2DN was 1:3. […] Antisense oligonucleotide constructs for JNK1 or JNK2 (50–100 nM) were transfected into 293T cells one day before transfection with the IGFIR-IC construct. For all inhibition assays, cell viability was measured using the LDH assay.

[3] = tested on: striatal, cortical, and hippocampal neurons; assay: SP-induced cell death in primary striatal, cortical and hippocampal neurons, trypan blue viability and staining; format: cell-based, rat; conditions: added 30 min before SP: 10 μM PD 98059, 50 nM Calphostin C, 10 μM Rp-8-Br-cAMPS
Method: Rat neuronal primary cell cultures were also used to assay for inducers and inhibitors of paraptosis. Briefly, primary striatal, cortical and hippocampal cultures were prepared from 17-day-old Sprague-Dawley rat embryos (B&K). The tissue was dissected, minced and trypsinized for five minutes using 0.25% trypsin (Cell Grow). After the addition of 10% horse serum (Life Technologies) to inhibit the trypsin, the cell suspension was triturated 15–20 times with a 10 ml syringe and centrifuged for five minutes at 800×g. The pellet was resuspended in MEM-PAK (UCSF Cell Culture facility), supplemented with 2.02 gm glucose, 2 mM GLUTAMAX™ (Life Technologies) and penicillin/streptomycin (100 U/ml). The suspension was filtered through a […] cell strainer and the final culture medium contained 5% horse serum. Subsequently, 3-4×10^5 cells per Cm^2 were seeded onto either poly-D-lysine precoated 8-well chamber slides (Becton-Dickson Labware) or 96 well plates precoated with […] of poly-D-lysine (Sigma) in water. After 30 minutes of incubation time, unattached cells were removed together with the medium and replaced with glucose enriched MEM-PAK plus 5% horse serum. The cultures were then incubated at 37° C. in 95% air 5% carbon dioxide with 95% humidity. Cultures were used for experiments between day 1 and day 7 when glial contamination was at a minimum.
Primary neuronal cells were prepared as described in Example I. SP (SIGMA) at a concentration of 0.1 nM–100 μM was added 24–48 hrs after seeding, in the presence of 2.5% horse serum. When the cultures were maintained for more than 5 days, 10 μM cytosine arabinoside was added for 24 hours, beginning 3 days after plating the cells. Viability was quantified by trypan blue staining of the total cell population.
The following compounds were added at the same time as SP in the indicated experiments: 5 nM L-732, 138; 1 nM L-733,060; 1 μg/ml Actinomycin D or 1 μg/ml Cycloheximide. All of these compounds were obtained from SIGMA. The caspase inhibitors zVAD.fmk and BAF were added at 50 μM and obtained from Enzyme System Products, Livermore, Calif.
Either neuronal primary cultures or human embryonic kidney 293T cells were fixed with 4% paraformaldehyde and stained with 0.5 μg/ml DAPI (Molecular Probes) or Hoechst(SIGMA). […]
as §1

SP-induced paraptosis = assay: Inhibition of SP-induced paraptosis, cells not specified; format: cell-based; conditions: concentration not given
293T cells = assay: Induction of paraptosis in 293T cells, LDH cell death assay; format: cell-based, human; conditions: 293T cells
Method: Human embryonic kidney 293T cell line cells were used to assay for inducers and inhibitors of paraptosis. These cells were cultured in high glucose DMEM (Life Technologies) supplemented with 10% FBS (Sigma) and 1% penicillin/streptomycin (Life Technologies). The cultures were incubated at 37° C. in 95% air 5% carbon dioxide with 95% humidity.
(§3) Subsequently, compounds were added to 293T cells and/or rat neuronal primary cell culture cells in order to determine if the compounds could induce paraptosis. Cell death was assayed using the lactate dehydrogenase (LDH) assay, in which the relative amount of enzyme released from dying cells in the medium is measured by following the disappearance of nicotinamide adenine dinucleotide, reduced form (NADH) in the following reaction: pyruvate+NADH <−>NAD^++ lactate. Briefly, 50 μl of culture medium for either 293T cells or 100 μl of culture medium for neuronal primary culture were dispensed in a 96 well plate to which 100 μl of a solution consisting of 5 mg of NADH dissolved in 20 ml of PBS and 0.5 ml of 100 mM NaPyruvate. NADH disappearance was assessed by kinetic photmetric readings at a 340 nm wavelength at 19 minute intervals over a period of 2 hours and 30 minutes.
Constructs of pcDNA3 containing procaspase-7 or procaspase-8 were transiently transfected into 293T cells using Lipofect-Amine (GIBCO-BRL) according to the manufacturer's instructions. Briefly, 1×10^6 293T cells were seeded in 6 cm dishes, and transfected the next day using a ratio of DNA:Lipofect-Amine of 1 μg:5 μl. Transfection efficiency was 60–80% for 293T cells, as determined by X-gal staining after transfection of a β-galactosidase construct.

[4] = tested on: rat neuronal primary cell cultures; assay: Induction of paraptosis in rat neuronal primary cell cultures, LDH cell death assay; format: cell-based
Method: Rat neuronal primary cell cultures were also used to assay for inducers and inhibitors of paraptosis. Briefly, primary striatal, cortical and hippocampal cultures were prepared from 17-day-old Sprague-Dawley rat embryos (B&K). The tissue was dissected, minced and trypsinized for five minutes using 0.25% trypsin (Cell Grow). After the addition of 10% horse serum (Life Technologies) to inhibit the trypsin, the cell suspension was triturated 15–20 times with a 10 ml syringe and centrifuged for five minutes at 800×g. The pellet was resuspended in MEM-PAK (UCSF Cell Culture facility), supplemented with 2.02 gm glucose, 2 mM GLUTAMAX™ (Life Technologies) and penicillin/streptomycin (100 U/ml). […]
as §3, with “Briefly, 50 μl of culture medium for either 293T cells or 100 μl of culture medium for neuronal primary culture were dispensed in a 96 well plate to which 100 μl of a solution consisting of 5 mg of NADH dissolved in 20 ml of PBS and 0.5 ml of 100 mM NaPyruvate.” left out

[5] = tested on: paraptosis induced by caspase 7, caspase 8 or caspase 9; assay: Inhibition of paraptosis induced by caspases; format: cell-based
Method: as §2

paraptosis = conditions: cited from earlier work

**Q.** With `COc1cccc(-c2cc(=O)c3ccccc3o2)c1N` [PD 98059] as the molecule, how does the “effect on non-neuronal NK1R-mediated pcd” value [1] read?
**A.** inhibited

**Q.** What about the “effect on phosphorylation of ERK-1/2” value (ERK-1/2) of the same molecule?
**A.** effectively reduced

**Q.** And the “effect on IGFIR-induced paraptosis” value [2]?
**A.** not blocked

**Q.** What about the “effect on neuronal cell death in response to SP” value [3] of the same molecule?
**A.** completely blocked

**Q.** Which results are given for `N#CC(=C(/N)Sc1ccccc1N)/C(C#N)=C(/N)Sc1ccccc1N` [UO126]?
**A.** effect on IGFIR-induced paraptosis [2]: can be inhibited; effect on SP-induced paraptosis (SP-induced paraptosis): can be inhibited

**Q.** Which results are given for `CCCCCCCCCCCCC/C=C/[C@@H](O)[C@H](CO)NC(C)=O` [C2 ceramide, N-Acetyl-D-sphingosine]?
**A.** concentration at which found to induce paraptosis (293T cells): 15 to 100 µM; concentration at which found to induce paraptosis [4]: 15 to 100 µM

B1: AIP-1: Alg-2 interacting protein 1, co-transfected with the IGFIR-IC construct (protein, UniProt Q8WUM4 2-868, looked up)
Programmed cell death …: ATFISVQLKKTSEVDLAKPLVKFIQQTYPSGGEEQAQYCRAAEELSKLRRAAVGRPLDKHEGALETLLRYYDQICSIEPKFPFSENQICLTFTWKDAFDKGSLFGGSVKLALASLGYEKSCVLFNCAALASQIAAEQNLDNDEGLKIAAKHYQFASGAFLHIKETVLSALSREPTVDISPDTVGTLSLIMLAQAQEVFFLKATRDKMKDAIIAKLANQAADYFGDAFKQCQYKDTLPKEVFPVLAAKHCIMQANAEYHQSILAKQQKKFGEEIARLQHAAELIKTVASRYDEYVNVKDFSDKINRALAAAKKDNDFIYHDRVPDLKDLDPIGKATLVKSTPVNVPISQKFTDLFEKMVPVSVQQSLAAYNQRKADLVNRSIAQMREATTLANGVLASLNLPAAIEDVSGDTVPQSILTKSRSVIEQGGIQTVDQLIKELPELLQRNREILDESLRLLDEEEATDNDLRAKFKERWQRTPSNELYKPLRAEGTNFRTVLDKAVQADGQVKECYQSHRDTIVLLCKPEPELNAAIPSANPAKTMQGSEVVNVLKSLLSNLDEVKKEREGLENDLKSVNFDMTSKFLTALAQDGVINEEALSVTELDRVYGGLTTKVQESLKKQEGLLKNIQVSHQEFSKMKQSNNEANLREEVLKNLATAYDNFVELVANLKEGTKFYNELTEILVRFQNKCSDIVFARKTERDELLKDLQQSIAREPSAPSIPTPAYQSSPAGGHAPTPPTPAPRTMPPTKPQPPARPPPPVLPANRAPSATAPSPVGAGTAAPAPSQTPGSAPPPQAQGPPYPTYPGYPGYCQMPMPMGYNPYAYGQYNMPYPPVYHQSPGQAPYPGPQQPSYPFPQPPQQSYYPQQ
**Q.** Which “inhibition of IGFIR-IC induced paraptosis” value ([2]; co-transfected with the IGFIR-IC construct, ratio 1:3) does the source give for B1 here?
**A.** able to inhibit IGFIR-IC induced paraptosis

**Q.** What about the “effect on SP-induced paraptosis” value (SP-induced paraptosis) of the same molecule?
**A.** can be inhibited

B2: p35: caspase inhibitor (protein, UniProt P08160 1-299, looked up)
Early 35 kDa protein: MCVIFPVEIDVSQTIIRDCQVDKQTRELVYINKIMNTQLTKPVLMMFNISGPIRSVTRKNNNLRDRIKSKVDEQFDQLERDYSDQMDGFHDSIKYFKDEHYSVSCQNGSVLKSKFAKILKSHDYTDKKSIEAYEKYCLPKLVDERNDYYVAVCVLKPGFENGSNQVLSFEYNPIGNKVIVPFAHEINDTGLYEYDVVAYVDSVQFDGEQFEEFVQSLILPSSFKNSEKVLYYNEASKNKSMIYKALEFTTESSWGKSEKYNWKIFCNGFIYDKKSKVLYVKLHNVTSALNKNVILNTIK
**Q.** Which “inhibition of paraptosis induction by caspase-7 and caspase-8” value [5] does the source give for B2 here?
**A.** subject to inhibition

**Q.** And the “effect of caspase inhibitors on paraptosis” value (paraptosis)?
**A.** lack of effect
